Data as given in ChEMBL document CHEMBL3352520, “CoMFA and CoMSIA analysis of ACE-inhibitory, antimicrobial and bitter-tasting peptides” (Eur J Med Chem, 2014).
Residues, ends and D or L forms follow the SMILES beside them.

Experiments:
Pseudomonas aeruginosa [1] = experiment: antimicrobial activity against Pseudomonas aeruginosa
Pseudomonas aeruginosa [2] = experiment: Antimicrobial activity against Pseudomonas aeruginosa relative to peptide Bac2A RLARIVVIRVAR sequence
[3] = biological target: Angiotensin-converting enzyme (Homo sapiens) (UniProt P12821); experiment: Inhibition of ACE (unknown origin); design: unit not given here
Chain of Angiotensin-converting enzyme (Homo sapiens) (P12821 whole entry): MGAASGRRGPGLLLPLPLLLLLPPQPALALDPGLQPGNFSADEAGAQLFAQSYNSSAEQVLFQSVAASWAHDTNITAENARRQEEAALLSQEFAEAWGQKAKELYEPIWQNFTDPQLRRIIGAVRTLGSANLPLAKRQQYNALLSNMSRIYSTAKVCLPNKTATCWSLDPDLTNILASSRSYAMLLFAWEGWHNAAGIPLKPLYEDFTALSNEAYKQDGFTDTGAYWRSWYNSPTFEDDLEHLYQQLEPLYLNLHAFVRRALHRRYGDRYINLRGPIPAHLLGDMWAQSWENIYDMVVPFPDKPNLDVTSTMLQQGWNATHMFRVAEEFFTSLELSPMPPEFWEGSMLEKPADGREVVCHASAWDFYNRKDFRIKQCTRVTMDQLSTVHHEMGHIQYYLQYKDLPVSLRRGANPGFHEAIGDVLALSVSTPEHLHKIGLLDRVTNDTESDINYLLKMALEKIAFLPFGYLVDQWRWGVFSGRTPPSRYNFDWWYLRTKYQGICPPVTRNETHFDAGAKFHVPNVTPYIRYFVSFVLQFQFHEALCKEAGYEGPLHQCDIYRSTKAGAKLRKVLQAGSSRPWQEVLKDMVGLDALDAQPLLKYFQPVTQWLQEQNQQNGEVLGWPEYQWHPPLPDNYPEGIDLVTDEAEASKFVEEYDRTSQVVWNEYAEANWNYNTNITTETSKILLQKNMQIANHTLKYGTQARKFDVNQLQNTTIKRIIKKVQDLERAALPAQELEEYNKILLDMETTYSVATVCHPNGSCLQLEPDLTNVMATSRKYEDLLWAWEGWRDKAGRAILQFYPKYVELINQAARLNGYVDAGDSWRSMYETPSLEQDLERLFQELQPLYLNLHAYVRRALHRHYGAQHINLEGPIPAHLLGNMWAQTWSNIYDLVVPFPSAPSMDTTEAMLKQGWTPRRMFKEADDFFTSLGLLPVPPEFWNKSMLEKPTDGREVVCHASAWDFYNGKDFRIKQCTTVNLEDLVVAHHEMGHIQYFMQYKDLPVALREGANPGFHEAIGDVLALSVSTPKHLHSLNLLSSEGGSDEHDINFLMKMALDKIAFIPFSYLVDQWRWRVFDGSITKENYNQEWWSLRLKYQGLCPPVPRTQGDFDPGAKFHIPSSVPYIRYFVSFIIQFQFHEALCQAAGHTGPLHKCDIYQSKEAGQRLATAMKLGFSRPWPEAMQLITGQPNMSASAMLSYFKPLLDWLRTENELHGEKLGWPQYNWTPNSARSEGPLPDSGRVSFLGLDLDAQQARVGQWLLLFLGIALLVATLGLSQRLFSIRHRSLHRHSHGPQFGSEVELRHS

H-RWILWWWRI-OH
pIC50 (Pseudomonas aeruginosa [1]): 4.6 | Ratio IC50 (Pseudomonas aeruginosa [2]): 25

H-RKRLKWWIY-OH
pIC50 (Pseudomonas aeruginosa [1]): 6.74 | Ratio IC50 (Pseudomonas aeruginosa [2]): 0.18

H-RKWWRWWRW-OH
pIC50 (Pseudomonas aeruginosa [1]): 6.51 | Ratio IC50 (Pseudomonas aeruginosa [2]): 0.31

H-WKRWKWWKR-OH
pIC50 (Pseudomonas aeruginosa [1]): 6.6 | Ratio IC50 (Pseudomonas aeruginosa [2]): 0.25

H-KRRRIWWWK-OH
pIC50 (Pseudomonas aeruginosa [1]): 6.4 | Ratio IC50 (Pseudomonas aeruginosa [2]): 0.4

H-RRIWRWWWW-OH
pIC50 (Pseudomonas aeruginosa [1]): 6.17 | Ratio IC50 (Pseudomonas aeruginosa [2]): 0.68

H-LHLYLP-OH
logIC50 [3]: 1.28

H-VHLAP-OH
logIC50 [3]: 0.65

CSCC[C@H](NC(=O)[C@@H](N)C(C)C)C(=O)N1CCC[C@H]1C(=O)O (H-Val-Met-Pro-OH)
logIC50 [3]: 1.46

CSCC[C@H](N)C(=O)N[C@@H](CC(N)=O)C(=O)N1CCC[C@H]1C(=O)O (H-Met-Asn-Pro-OH)
logIC50 [3]: 1.82

CSCC[C@H](N)C(=O)N[C@@H](Cc1c[nH]c2ccccc12)C(=O)O (H-Met-Trp-OH)
logIC50 [3]: 1

N[C@@H](Cc1ccccc1)C(=O)N[C@@H](Cc1ccc(O)cc1)C(=O)O (H-Phe-Tyr-OH)
logIC50 [3]: 1.4

C[C@H](NC(=O)[C@H](Cc1c[nH]c2ccccc12)NC(=O)CN)C(=O)N1CCC[C@H]1C(=O)O (H-GWAP-OH)
logIC50 [3]: 0.59

CC(C)C[C@H](N)C(=O)N[C@@H](Cc1ccc(O)cc1)C(=O)O
logIC50 [3]: 1.51

C[C@H](NC(=O)[C@@H](N)Cc1ccccc1)C(=O)N1CCC[C@H]1C(=O)O (H-Phe-Ala-Pro-OH)
logIC50 [3]: 0.58

H-IAYKP-OH
logIC50 [3]: 0.34

C[C@@H](O)[C@H](N)C(=O)N[C@@H](CC(N)=O)C(=O)N1CCC[C@H]1C(=O)O (H-Thr-Asn-Pro-OH)
logIC50 [3]: 2.32

H-PVVVPP-OH
logIC50 [3]: 2.07

H-GRVMP-OH
logIC50 [3]: 2.4

H-KRKIWWWIR-OH
pIC50 (Pseudomonas aeruginosa [1]): 6.55 | Ratio IC50 (Pseudomonas aeruginosa [2]): 0.28

N[C@@H](Cc1ccccc1)C(=O)N1CCC[C@H]1C(=O)O (H-Phe-Pro-OH)
logIC50 [3]: 2.5

CC(C)[C@H](N)C(=O)N[C@@H](CO)C(=O)N[C@@H](CO)C(=O)N1CCC[C@H]1C(=O)O (H-VSSP-OH)
logIC50 [3]: 1

NC(=O)C[C@H](N)C(=O)N[C@@H](Cc1ccc(O)cc1)C(=O)O (H-Asn-Tyr-OH)
logIC50 [3]: 1.51

NCC(=O)N1CCC[C@H]1C(=O)O (H-Gly-Pro-OH)
logIC50 [3]: 2.56

H-PQPIP-OH
logIC50 [3]: 2.53

H-RHWKTWWKR-OH
pIC50 (Pseudomonas aeruginosa [1]): 6.02 | Ratio IC50 (Pseudomonas aeruginosa [2]): 0.95

H-VIEKYP-OH
logIC50 [3]: 2.24

N[C@@H](Cc1cnc[nH]1)C(=O)N[C@@H](Cc1ccc(O)cc1)C(=O)O (H-His-Tyr-OH)
logIC50 [3]: 1.42

H-RIKVIWWWR-OH
pIC50 (Pseudomonas aeruginosa [1]): 6.29 | Ratio IC50 (Pseudomonas aeruginosa [2]): 0.51

N=C(N)NCCC[C@H](NC(=O)CN)C(=O)N1CCC[C@H]1C(=O)O (H-Gly-Arg-Pro-OH)
logIC50 [3]: 1.3

CC[C@H](C)[C@H](N)C(=O)N[C@@H](C)C(=O)N1CCC[C@H]1C(=O)O (H-Ile-Ala-Pro-OH)
logIC50 [3]: 0.43

H-RPQIPP-OH
logIC50 [3]: 1.66

CC(C)[C@H](N)C(=O)N[C@@H](Cc1ccccc1)C(=O)O (H-Val-Phe-OH)
logIC50 [3]: 0.96

NCCCC[C@H](N)C(=O)N[C@@H](Cc1ccccc1)C(=O)O
logIC50 [3]: 1.45

N=C(N)NCCC[C@H](NC(=O)[C@H](CCCCN)NC(=O)[C@H](CCCNC(=N)N)NC(=O)[C@@H](N)CCCNC(=N)N)C(=O)N[C@@H](Cc1c[nH]c2ccccc12)C(=O)N[C@@H](Cc1c[nH]c2ccccc12)C(=O)N[C@@H](Cc1c[nH]c2ccccc12)C(=O)N[C@@H](Cc1c[nH]c2ccccc12)C(=O)N[C@@H](Cc1c[nH]c2ccccc12)C(=O)O
pIC50 (Pseudomonas aeruginosa [1]): 6.37 | Ratio IC50 (Pseudomonas aeruginosa [2]): 0.43

CC[C@H](C)[C@H](N)C(=O)N[C@@H](CCCCN)C(=O)N1CCC[C@H]1C(=O)O (H-Ile-Lys-Pro-OH)
logIC50 [3]: 0.84

CC[C@H](C)[C@H](N)C(=O)N[C@@H](Cc1ccc(O)cc1)C(=O)O (H-Ile-Tyr-OH)
logIC50 [3]: 0.79

H-AVPYP-OH
logIC50 [3]: 1.9

NCC(=O)N[C@@H](Cc1ccccc1)C(=O)O (H-Gly-Phe-OH)
logIC50 [3]: 2.44

H-KRWWWWWKR-OH
pIC50 (Pseudomonas aeruginosa [1]): 6.66 | Ratio IC50 (Pseudomonas aeruginosa [2]): 0.22

H-RIKRWWWWR-OH
pIC50 (Pseudomonas aeruginosa [1]): 6.51 | Ratio IC50 (Pseudomonas aeruginosa [2]): 0.31

H-IRRRKWWWW-OH
pIC50 (Pseudomonas aeruginosa [1]): 6.68 | Ratio IC50 (Pseudomonas aeruginosa [2]): 0.21

CC(C)C[C@H](N)C(=O)N[C@@H](CCC(=O)O)C(=O)N1CCC[C@H]1C(=O)O (H-Leu-Glu-Pro-OH)
logIC50 [3]: 0.28

CC(C)C[C@H](N)C(=O)N[C@@H](CC(N)=O)C(=O)N1CCC[C@H]1C(=O)O (H-Leu-Asn-Pro-OH)
logIC50 [3]: 1.76

CC(C)C[C@H](N)C(=O)N[C@@H](CCCN=C(N)N)C(=O)N1CCC[C@H]1C(=O)O (H-Leu-Arg-Pro-OH)
logIC50 [3]: -0.57

N=C(N)NCCC[C@H](NC(=O)[C@H](CCCNC(=N)N)NC(=O)[C@@H](N)CCCNC(=N)N)C(=O)N[C@@H](Cc1c[nH]c2ccccc12)C(=O)N[C@@H](Cc1c[nH]c2ccccc12)C(=O)N[C@@H](Cc1c[nH]c2ccccc12)C(=O)N[C@@H](Cc1c[nH]c2ccccc12)C(=O)N[C@@H](Cc1c[nH]c2ccccc12)C(=O)N[C@@H](Cc1c[nH]c2ccccc12)C(=O)O
pIC50 (Pseudomonas aeruginosa [1]): 5.74 | Ratio IC50 (Pseudomonas aeruginosa [2]): 1.82

H-VHLPP-OH
logIC50 [3]: 1.26

NC(=O)C[C@H](N)C(=O)N[C@@H](Cc1ccccc1)C(=O)O (H-Asn-Phe-OH)
logIC50 [3]: 1.67

H-VLIVP-OH
logIC50 [3]: 2.23

H-KWWKIWWKR-OH
pIC50 (Pseudomonas aeruginosa [1]): 6.7 | Ratio IC50 (Pseudomonas aeruginosa [2]): 0.2

C[C@@H](O)[C@H](N)C(=O)N1CCC[C@H]1C(=O)O (H-Thr-Pro-OH)
logIC50 [3]: 2.46

H-PVPQP-OH
logIC50 [3]: 2.04

H-LRFILWWKR-OH
pIC50 (Pseudomonas aeruginosa [1]): 6.06 | Ratio IC50 (Pseudomonas aeruginosa [2]): 0.88

H-RWWRKWWIR-OH
pIC50 (Pseudomonas aeruginosa [1]): 6.62 | Ratio IC50 (Pseudomonas aeruginosa [2]): 0.24

CC(C)[C@H](N)C(=O)N1CCC[C@H]1C(=O)O (H-Val-Pro-OH)
logIC50 [3]: 2.62

CC(C)C[C@H](N)C(=O)N[C@@H](CCCCN)C(=O)N1CCC[C@H]1C(=O)O (H-Leu-Lys-Pro-OH)
logIC50 [3]: 0.6

CC(C)C[C@H](N)C(=O)N[C@H](C(=O)N1CCC[C@H]1C(=O)N1CCC[C@H]1C(=O)O)C(C)C (H-LVPP-OH)
logIC50 [3]: 2.1

CC(C)C[C@H](NC(=O)[C@H](C)N)C(=O)N1CCC[C@H]1C(=O)O (H-Ala-Leu-Pro-OH)
logIC50 [3]: 2.38

CSCC[C@H](N)C(=O)N[C@@H](Cc1ccccc1)C(=O)O (H-Met-Phe-OH)
logIC50 [3]: 1.65

H-DYGLYP-OH
logIC50 [3]: 1.79

CC(C)[C@H](NC(=O)[C@H](C)N)C(=O)N1CCC[C@H]1C(=O)O (H-Ala-Val-Pro-OH)
logIC50 [3]: 2.53

H-SKVPP-OH
logIC50 [3]: 1.87

NCCCC[C@H](NC(=O)CN)C(=O)N1CCC[C@H]1C(=O)O (H-Gly-Lys-Pro-OH)
logIC50 [3]: 2.55

NCC(=O)N[C@@H](Cc1c[nH]c2ccccc12)C(=O)O (H-Gly-Trp-OH)
logIC50 [3]: 1.4

H-LHLPYP-OH
logIC50 [3]: 0.36

H-APVPP-OH
logIC50 [3]: 2.8

CC(C)C[C@H](N)C(=O)N[C@@H](CO)C(=O)N1CCC[C@H]1C(=O)O (H-Leu-Ser-Pro-OH)
logIC50 [3]: 0.23

CC(C)[C@H](NC(=O)[C@@H](N)Cc1ccccc1)C(=O)N[C@@H](C)C(=O)N1CCC[C@H]1C(=O)O (H-FVAP-OH)
logIC50 [3]: 1

H-VLPYP-OH
logIC50 [3]: 1.56

CC(C)C[C@H](N)C(=O)N[C@@H](Cc1ccc(O)cc1)C(=O)N1CCC[C@H]1C(=O)O (H-Leu-Tyr-Pro-OH)
logIC50 [3]: 0.82

N[C@@H](Cc1ccc(O)cc1)C(=O)N1CCC[C@H]1C(=O)O (H-Tyr-Pro-OH)
logIC50 [3]: 2.86

H-TRKVWWWRW-OH
pIC50 (Pseudomonas aeruginosa [1]): 6.12 | Ratio IC50 (Pseudomonas aeruginosa [2]): 0.76

NC(N)=NCCC[C@H](N)C(=O)N[C@@H](Cc1ccccc1)C(=O)O
logIC50 [3]: 1.97

CC[C@H](C)[C@H](N)C(=O)N[C@@H](Cc1c[nH]c2ccccc12)C(=O)O
logIC50 [3]: 0.67

H-WHGVRWWKW-OH
pIC50 (Pseudomonas aeruginosa [1]): 5.6 | Ratio IC50 (Pseudomonas aeruginosa [2]): 2.5

CC(C)[C@H](N)C(=O)N[C@@H](CO)C(=O)N1CCC[C@H]1C(=O)O (H-Val-Ser-Pro-OH)
logIC50 [3]: 1

H-RWRRKWWWW-OH
pIC50 (Pseudomonas aeruginosa [1]): 6.41 | Ratio IC50 (Pseudomonas aeruginosa [2]): 0.39

H-FFVAP-OH
logIC50 [3]: 0.78

H-KRWWKWWRR-OH
pIC50 (Pseudomonas aeruginosa [1]): 6.89 | Ratio IC50 (Pseudomonas aeruginosa [2]): 0.13

H-LHLPAP-OH
logIC50 [3]: 0.78

N=C(N)NCCC[C@H](N)C(=O)N[C@@H](Cc1ccc(O)cc1)C(=O)O (H-Arg-Tyr-OH)
logIC50 [3]: 1.71

C[C@H](N)C(=O)N[C@@H](Cc1ccc(O)cc1)C(=O)O (H-Ala-Tyr-OH)
logIC50 [3]: 1.28

H-LHLPGP-OH
logIC50 [3]: 0.28

H-LALPP-OH
logIC50 [3]: 2.9

CC(C)C[C@H](N)C(=O)N[C@@H](C)C(=O)N1CCC[C@H]1C(=O)O (H-Leu-Ala-Pro-OH)
logIC50 [3]: 0.54

H-LHLPLP-OH
logIC50 [3]: 0.57

CC[C@H](C)[C@H](N)C(=O)N[C@@H](CCCNC(=N)N)C(=O)N1CCC[C@H]1C(=O)O (H-Ile-Arg-Pro-OH)
logIC50 [3]: -0.13

H-VLPIP-OH
logIC50 [3]: 1.49
